From patent US20120058133A1, “INHIBITION OF TRNA SYNTHETASES AND THERAPEUTIC APPLICATIONS THEREOF” (President and Fellows of Harvard College, priority 2009, published 2012)

Columns and labels:
[1] = system: amino acid starvation response pathway; test: Amino acid starvation response (eIF2α phosphorylation, ATF4, AAR genes) in T cells; type: cell-based, mouse; conditions: for eIF2α phosphorylation and ATF4 expression: 1 μg/ml tunicamycin
Experimental: FIG. 4C is a graph depicting results of quantitative real-time PCR performed on cDNA generated from unstimulated naïve T cells or those activated for 4 hours in the presence of 10 nM MAZ1310 or 10 nM HF. Asns, Gpt2 or eIF4Ebp1 mRNA expression was normalized to Hprt levels and data are presented as mean values ±SD in duplicate samples.
FIG. 4D depicts western blot analysis of purified CD4^+ CD25^− T cells either unstimulated, or TCR-activated without exogenous cytokines in the presence of DMSO, 40 nM MAZ1310 or titrating concentrations of HF (1.25-40 nM). Whole cell lysates were prepared 4 hours-post TCR activation and immunoblotting was performed with the indicated antibodies. ATF4 protein is indicated by arrowhead. NS—non-specific band.
FIG. 4E depicts western blot analysis of purified CD4^+ CD25^− T cells activated through the TCR for the indicated times without exogenous cytokines in the presence of either 10 nM MAZ1310 or 10 nM HF as indicated. Whole cell lysates were prepared during the timecourse and immunoblotting was performed.
FIG. 4F depicts western blot analysis of CD4^+ CD25^− T cells either left unstimulated or were TCR-activated in the absence or presence of the indicated polarizing cytokine conditions and 10 nM MAZ1310 or 10 nM HF as indicated. Whole cell lysates were generated 4 hours after activation and immunoblotting was performed. Microarray data were generated from three independent experiments and all other data are representative of at least two similar experiments.
(§1) FIG. 5. […] FIG. 5A depicts western blot and Xbp1 splicing analysis of CD4^+ CD25^− T cells left unstimulated, or activated through the TCR for 4 hours in complete medium (complete—200 μM Cys/100 μM Met), medium lacking Cys/Met (−Cys/Met) or complete medium containing 1 μg/ml tunicamycin, 10 nM HF or 10 nM MAZ1310. Western blotting was performed on whole cell extracts with the indicated antibodies. Xbp-1 splicing assay was performed on cDNA synthesized from T cell cultures.
T cells were activated as described above, collected at the indicated times and pellets were flash-frozen in liquid nitrogen. Total RNA was obtained by RNeasy (Quiagen—Valencia, Calif.) column purification per manufacturers instructions. RORγt expression was determined after reverse transcription using the message sensor kit (Ambion—Austin, Tex.) per the manufacturer's instructions and taqman primers and probe as described elsewhere (Ivanov et al., Cell 126:1121, 2006). Sybrgreen quantitative real-time PCR was performed on T cell RNA samples following reverse transcription via SuperScript II first-strand cDNA synthesis kit (Invitrogen—Carlsbad, Calif.). All PCR data was collected on an iCycler thermal cycler (Biorad—Hercules, Calif.). Primer sequences used for detecting stress response genes are listed below.
Whole cell lysates were generated from T cells activated for the indicated times. For STAT3 and Smad2/3 western blots cells were harvested, washed in PBS and lysed in 50 mM Tris, pH 7.4, 0.1% SDS, 1% Triton-X 100, 140 mM NaCl, 1 mM EDTA, 1 mM EGTA supplemented with protease inhibitors tablets (Roche—Germany), 1 mM NaF and 1 mM Na3VO4. For eIF2α and ATF4 western blots, cells were harvested as above and lysed in 50 mM Tris, pH 7.4, 2% SDS, 20% glycerol and 2 mM EDTA supplemented with protease and phosphatase inhibitors as above. All lysates were cleared via centrifugation and 15-30 μg of protein was resolved by SDS-PAGE. Protein was transferred to nitrocellulose membranes, blocked and blotted using specific antibodies. Antibodies used for western blot analysis were anti-phospho-Smad2, anti-STAT3 (pY705), anti-STAT3, anti-eIF2α^ps51, anti-eIF2α (all from cell signaling technology—Danvers, Mass.). Anti-ATF4/CREB2 and anti-β-actin were purchased from Santa Cruz Biotechnology (Santa Cruz, Calif.). HRP-conjugated secondary antibodies were all purchased from Sigma, with the exception of HRP-conjugated anti-armenian hamster antibody (Jackson Immunoresearch—West Grove, Pa.). […]

[2] = system: Xbp-1 splicing; test: ER stress / unfolded protein response (Xbp-1 splicing) in T cells; type: cell-based, mouse; conditions: for Xbp-1 splicing: TCR activation 4 hours, 1 μg/ml tunicamycin, 10 nM HF
Experimental: as §1

[3] = TCR activation 4 hours, 10 nM HF

Row | Molecule | eIF2α phosphorylation and ATF4 expression [1, 3] | Xbp-1 splicing [2] | time to maximum eIF2α phosphorylation ([1]; 10 nM HF) | time until which ATF4 protein continued to accumulate ([1]; 10 nM HF) | ATF4 expression in differentiated and naïve T cells ([1]; 10 nM HF, 4 hours) | eIF2α phosphorylation in resting naïve T cells and ThN, Th1, Th2, iTreg, Th17 conditions ([1]; 10 nM HF, 4 hours) | AAR-associated genes (Asns, Gpt2, eIF4Ebp1) by qPCR ([1]; 10 nM HF, within 4 hours of T cell activation) | effect of added proline on HF-induced eIF2alpha phosphorylation ([1]; 10 nM halofuginone, 1 mM amino acid) | eif2alpha Ser51 phosphorylation in wild type and GCN2−/− T cells ([1]; 10 nM, TCR activation 4 hours) | concentration at which eIF2α phosphorylation plateaued ([1]; 4 hours post TCR activation) | concentration giving detectable eIF2α phosphorylation ([1]; 4 hours post TCR activation) | concentration with highest ATF4 expression levels ([1]; 4 hours post TCR activation) | concentrations at which ATF4 expression was reduced ([1]; 4 hours post TCR activation) | expression of hallmark ER stress response genes [2]
1 | tunicamycin | induced eIF2α phosphorylation and ATF4 expression | together with Xbp-1 splicing |  |  |  |  |  |  |  |  |  |  |  | 
2 | O=C(CC1NCCCC1O)Cn1cnc2cc(Br)c(Cl)cc2c1=O (racemic) [HF, halofuginone] | inducing eIF2α phosphorylation | without promoting Xbp-1 splicing | ≤ 2 h | 4 h | induced ATF4 expression in all differentiated T cells, but not in naïve T cells | induced eIF2α phosphorylation | induced | blocked by added proline | leads to phosphorylation of Ser51 of eif2alpha only in wild type cells and not in GCN2^−/− cells | 5 to 10 nM | 2.5 nM | 5 to 10 nM | 20 to 40 nM | did not induce
